Among the data in patent US11427548B2 (Arvinas Operations, Inc., priority 2015, dated 2022) are DC50 and Dmax values, retold here.

Molecules are shown by their SMILES. Read-outs that look alike come from different tables or passages of the source.

In this assay the target is T1, Androgen Receptor (Homo sapiens, UniProt P10275).
T1 construct: endogenous in cells; host or cells: VCaP cells
T1 sequence (P10275 1-920): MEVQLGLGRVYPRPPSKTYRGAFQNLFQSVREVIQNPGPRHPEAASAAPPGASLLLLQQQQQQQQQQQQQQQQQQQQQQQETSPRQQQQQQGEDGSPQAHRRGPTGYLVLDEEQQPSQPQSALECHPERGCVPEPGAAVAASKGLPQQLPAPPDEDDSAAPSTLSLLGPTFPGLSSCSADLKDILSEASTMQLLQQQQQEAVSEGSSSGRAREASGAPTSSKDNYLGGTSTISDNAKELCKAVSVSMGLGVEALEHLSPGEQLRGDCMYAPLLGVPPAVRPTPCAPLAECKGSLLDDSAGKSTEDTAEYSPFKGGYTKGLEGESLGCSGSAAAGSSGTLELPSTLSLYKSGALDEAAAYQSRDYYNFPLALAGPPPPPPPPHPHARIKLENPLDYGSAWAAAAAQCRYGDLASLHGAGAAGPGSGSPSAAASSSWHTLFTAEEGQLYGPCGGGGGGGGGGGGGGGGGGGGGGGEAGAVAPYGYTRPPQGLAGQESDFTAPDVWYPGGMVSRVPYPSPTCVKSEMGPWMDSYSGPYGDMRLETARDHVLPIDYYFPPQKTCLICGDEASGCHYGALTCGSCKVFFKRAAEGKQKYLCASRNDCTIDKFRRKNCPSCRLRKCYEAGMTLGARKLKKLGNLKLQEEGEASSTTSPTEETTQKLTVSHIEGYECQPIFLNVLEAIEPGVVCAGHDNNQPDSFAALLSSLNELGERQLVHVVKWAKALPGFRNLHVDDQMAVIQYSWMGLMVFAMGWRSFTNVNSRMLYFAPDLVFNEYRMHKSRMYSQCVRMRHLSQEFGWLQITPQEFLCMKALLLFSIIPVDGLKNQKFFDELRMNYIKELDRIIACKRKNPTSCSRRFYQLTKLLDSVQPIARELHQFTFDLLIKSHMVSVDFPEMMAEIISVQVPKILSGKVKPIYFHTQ
The assay can be described thus: Androgen Receptor ELISA assay (PathScan AR ELISA) in VCaP cells: AR degradation, Dmax and DC50. Format: cell-based. The note with it: Table 36; for DC50: read-out: VCaP DC50; for Dmax: VCaP. In a few lines: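 VCaP cells, 30,000/well, grown ≥3 days in phenol red-free RPMI with 5% charcoal-stripped FBS; compound added in 0.1% DMSO with 0.1 nM R1881, 7 half-log doses, 24 h. Lysate AR quantified by PathScan sandwich ELISA, HRP/TMB read at 450 nm, giving DC50 and Dmax.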

Where [1] appears, read: VCaP cells, read-out: VCaP Dmax (%).

On to `Cc1ncsc1-c1ccc(CNC(=O)[C@@H]2C[C@@H](O)CN2C(=O)[C@H](C(C)C)N2Cc3ccccc3C2=O)c(N2CCN(CCCc3ccc(C(=O)N[C@H]4C(C)(C)[C@H](Oc5ccc(C#N)c(Cl)c5)C4(C)C)cc3)CC2)c1` [Example 752, (2S,4R)-N-(2-(4-(3-(4-(((1r,3r)-3-(3-chloro-4-cyanophenoxy)-2,2,4,4-tetramethylcyclobutyl)carbamoyl)phenyl)propyl)piperazin-1-yl)-4-(4-methylthiazol-5-yl)benzyl)-4-hydroxy-1-((S)-3-methyl-2-(1-oxoisoindolin-2-yl)butanoyl)pyrrolidine-2-carboxamide], for which, under “VCaP cells”, the DC50 was less than 50 nM. For the same compound, the maximal degradation (Dmax) under setting [1] was 51 to 70%.

With `Cc1ncsc1-c1ccc(CNC(=O)[C@@H]2C[C@@H](O)CN2C(=O)[C@H](C(C)C)N2Cc3ccccc3C2=O)c(N2CCN(CCCc3ccc(C(=O)N[C@H]4C(C)(C)[C@H](Oc5ccc(C#N)c(C(F)(F)F)c5)C4(C)C)cc3)CC2)c1` [Example 753, (2S,4R)-N-(2-(4-(3-(4-(((1r,3r)-3-(4-cyano-3-(trifluoromethyl)phenoxy)-2,2,4,4-tetramethylcyclobutyl)carbamoyl)phenyl)propyl)piperazin-1-yl)-4-(4-methylthiazol-5-yl)benzyl)-4-hydroxy-1-((S)-3-methyl-2-(1-oxoisoindolin-2-yl)butanoyl)pyrrolidine-2-carboxamide], under “VCaP cells”, the DC50 was less than 50 nM. In addition, the maximal degradation (Dmax) under setting [1] is 51 to 70%.

Turning to `CC(C)[C@@H](C(=O)N1C[C@H](O)C[C@H]1C(=O)NCc1ccc(Cl)cc1N1CCN(CCCc2ccc(C(=O)N[C@H]3C(C)(C)[C@H](Oc4ccc(C#N)c(Cl)c4)C3(C)C)cc2)CC1)N1Cc2ccccc2C1=O` [Example 754, (2S,4R)-N-(4-chloro-2-(4-(3-(4-(((1r,3r)-3-(3-chloro-4-cyanophenoxy)-2,2,4,4-tetramethylcyclobutyl)carbamoyl)phenyl)propyl)piperazin-1-yl)benzyl)-4-hydroxy-1-((S)-3-methyl-2-(1-oxoisoindolin-2-yl)butanoyl)pyrrolidine-2-carboxamide], where the note is “VCaP cells”, the DC50 was greater than 501 nM. Also, the Dmax under setting [1] is less than 25%.

On to `Cc1ncsc1-c1ccc([C@H](C)NC(=O)[C@@H]2C[C@@H](O)CN2C(=O)[C@@H](NC(=O)CCCCc2ccc(C(=O)N[C@H]3C(C)(C)[C@H](Oc4ccc(C#N)c(Cl)c4)C3(C)C)cc2)C(C)(C)C)cc1` [Example 755, (2S,4R)-1-((S)-2-(5-(4-(((1r,3S)-3-(3-chloro-4-cyanophenoxy)-2,2,4,4-tetramethylcyclobutyl)carbamoyl)phenyl)pentan-amido)-3,3-dimethylbutanoyl)-4-hydroxy-N-((S)-1-(4-(4-methylthiazol-5-yl)phenyl)ethyl)pyrrolidine-2-carboxamide], for which, for the setting “VCaP cells”, the DC50 was greater than 501 nM. Under setting [1], the Dmax fell in the range of 26 to 50%.

As to `Cc1ncsc1-c1ccc([C@H](C)NC(=O)[C@@H]2C[C@@H](O)CN2C(=O)[C@@H](NC(=O)CCCCCCCCc2ccc(C(=O)N[C@H]3C(C)(C)[C@H](Oc4ccc(C#N)c(Cl)c4)C3(C)C)cc2)C(C)(C)C)cc1` [Example 756, (2S,4R)-1-((S)-2-(9-(4-(((1r,3r)-3-(3-chloro-4-cyanophenoxy)-2,2,4,4-tetramethylcyclobutyl)carbamoyl)phenyl)nonan-amido)-3,3-dimethylbutanoyl)-4-hydroxy-N-((S)-1-(4-(4-methylthiazol-5-yl)phenyl)ethyl)pyrrolidine-2-carboxamide], the half-maximal degradation concentration (DC50) (VCaP cells) is 51 to 500 nM. The Dmax under setting [1] was 51 to 70%.

For `CC(C)(C)[C@H](NC(=O)COCCN1CCN(c2ccc(C(=O)N[C@H]3C(C)(C)[C@H](Oc4ccc(C#N)c(Cl)c4)C3(C)C)cn2)CC1)C(=O)N1C[C@H](O)C[C@H]1C(=O)NCc1ccc(C2CC2)cc1` [Example 757, N-((1r,3r)-3-(3-chloro-4-cyanophenoxy)-2,2,4,4-tetramethylcyclobutyl)-6-(4-(2-(2-(((S)-1-((2S,4R)-2-((4-cyclopropylbenzyl)car-bamoyl)-4-hydroxypyrrolidin-1-yl)-3,3-dimethyl-1-oxobutan-2-yl)amino)-2-oxoethoxy)ethyl)pipera-zin-1-yl)nicotinamide], the 50% degradation concentration (DC50) (VCaP cells) was greater than 501 nM. In addition, the Dmax under setting [1] lay in the range of 26 to 50%.

Turning to `CC(C)(C)[C@H](NC(=O)COCCN1CCN(c2ccc(C(=O)N[C@H]3C(C)(C)[C@H](Oc4ccc(C#N)c(Cl)c4)C3(C)C)cn2)CC1)C(=O)N1C[C@H](O)C[C@H]1C(=O)NCc1ccc(C2CCC2)cc1` [Example 758, N-((1r,3r)-3-(3-chloro-4-cyanophenoxy)-2,2,4,4-tetramethylcyclobutyl)-6-(4-(2-(2-(((S)-1-((2S,4R)-2-((4-cyclobutylbenzyl)carbam-oyl)-4-hydroxypyrrolidin-1-yl)-3,3-dimethyl-1-oxobutan-2-yl)amino)-2-oxoethoxy)ethyl)pipera-zin-1-yl)nicotinamide], the half-maximal degradation concentration (DC50) (VCaP cells) is greater than 501 nM. Moreover, under setting [1], the Dmax is less than 25%.

For the compound `CC(C)(C)[C@H](NC(=O)COCCN1CCN(c2ccc(C(=O)N[C@H]3C(C)(C)[C@H](Oc4ccc(C#N)c(Cl)c4)C3(C)C)cn2)CC1)C(=O)N1C[C@H](O)C[C@H]1C(=O)NCc1ccc(C2CCCC2)cc1` [Example 759, N-((1r,3r)-3-(3-chloro-4-cyanophenoxy)-2,2,4,4-tetramethylcyclobutyl)-6-(4-(2-(2-(((S)-1-((2S,4R)-2-((4-cyclopentylbenzyl)car-bamoyl)-4-hydroxypyrrolidin-1-yl)-3,3-dimethyl-1-oxobutan-2-yl)amino)-2-oxoethoxy)ethyl)pipera-zin-1-yl)nicotinamide], the half-maximal degradation concentration (DC50) (VCaP cells) is greater than 501 nM. For the same compound, under setting [1], the Dmax was less than 25%.

With `CC(C)(C)[C@H](NC(=O)COCCN1CCN(c2ccc(C(=O)N[C@H]3C(C)(C)[C@H](Oc4ccc(C#N)c(Cl)c4)C3(C)C)cn2)CC1)C(=O)N1C[C@H](O)C[C@H]1C(=O)NCc1ccc(C2CCOCC2)cc1` [Example 760, N-((1r,3r)-3-(3-chloro-4-cyanophenxoy)-2,2,4,4-tetramethylcyclobutyl) 6-(4-(2-(2-(((S)-1-((2S,4R)-4-hydroxy-2-((4-(tetrahydro-2H-pyran-4-yl)benzyl)carbamoyl)pyrrolidin-1-yl)-3,3-dimethyl-1-oxobutan-2-yl)amino)-2-oxoethoxy)ethyl)pipera-zin-1-yl)nicotinamide], the DC50 (VCaP cells) is greater than 501 nM. Besides, under setting [1], the Dmax fell in the range of 26 to 50%.

Regarding `Cc1ncsc1-c1ccc(CNC(=O)[C@@H]2C[C@@H](O)CN2C(=O)[C@@H](C(C)C)N2Cc3ccc(N4CCN(CCCc5ccc(C(=O)N[C@H]6C(C)(C)[C@H](Oc7ccc(C#N)c(C(F)(F)F)c7)C6(C)C)cc5)CC4)cc3C2=O)cc1` [Example 761, (2S,4R)-1-((R)-2-(6-(4-(3-(4-(((1r,3r)-3-(4-cyano-3-(trifluoromethyl)phenxoy)-2,2,4,4-tetramethylcyclobutyl)carbamoyl)phenyl)propyl)piperazin-1-yl)-1-oxoisoindolin-2-yl)-3-methylbutanoyl)-4-hydroxy-N-(4-(4-methylthiazol-5-yl)benzyl)pyrrolidine-2-carboxamide], the DC50 (VCaP cells) was greater than 501 nM. In addition, the greatest degradation seen (Dmax) (read-out: VCaP Dmax (%), VCaP cells) is less than 25%.
